Measured values from article PMC6467542 (Bioorganic & Medicinal Chemistry, 2019).
Converted amounts (≈) assume the structure as drawn. Where two headings read alike, the source gives them in different places.

Experiments:
[1] = test system: M. tb (strain H37Rv); assay: MIC90 against replicating M.tb (MABA); format: cell-based, Mycobacterium tuberculosis; settings: Mycobacterium tuberculosis, aerobic (replicating) conditions, 90% inhibition of growth
[2] = test system: M. tb (strain H37Rv); assay: MIC90 against non-replicating M.tb (LORA); format: cell-based, Mycobacterium tuberculosis; settings: Mycobacterium tuberculosis, H37RV, read-out: MIC90 LORA
Experimental: In these assays, 1 is a potent inhibitor, with MICs of 0.08 and 0.12 µg/mL, respectively. Replacement of the naphthalene C-unit of 1 with various pyridyls produced analogues of considerably lower lipophilicity, with clogP values ranging from 6.89 down to 2.98.

[3] = Cytotoxicity in Vero cells; format: cell-based; settings: green monkey, Vero green monkey-derived epithelial kidney cells
[4] = target: CYP3A4 (Homo sapiens, UniProt P08684); assay: Inhibition of CYP 3A4; format: in vitro ADME
CYP3A4, sequence (P08684 whole entry): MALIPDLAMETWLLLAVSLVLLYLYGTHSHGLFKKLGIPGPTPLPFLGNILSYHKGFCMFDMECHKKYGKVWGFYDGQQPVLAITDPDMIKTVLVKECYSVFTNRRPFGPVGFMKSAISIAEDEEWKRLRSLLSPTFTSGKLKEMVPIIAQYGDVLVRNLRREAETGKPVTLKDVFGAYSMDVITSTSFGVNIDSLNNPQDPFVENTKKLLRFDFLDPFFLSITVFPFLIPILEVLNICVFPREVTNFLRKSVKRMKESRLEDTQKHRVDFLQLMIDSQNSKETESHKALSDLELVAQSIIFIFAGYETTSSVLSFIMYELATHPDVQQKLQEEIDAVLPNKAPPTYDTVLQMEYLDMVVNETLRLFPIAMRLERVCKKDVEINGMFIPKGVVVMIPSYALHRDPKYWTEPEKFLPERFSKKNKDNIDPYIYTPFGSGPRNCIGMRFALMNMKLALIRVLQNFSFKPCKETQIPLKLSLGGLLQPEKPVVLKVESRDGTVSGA

[5] = test system: M.tb; assay: Efficacy in a mouse model of TB (lung CFU reduction); format: in vivo
[6] = mouse, in vivo
[7] = in vitro; settings: human, microsomes
[8] = in vitro; settings: mouse, microsomes
[9] = target: hERG potassium channel (Homo sapiens, UniProt Q12809); assay: Inhibition of hERG potassium current (patch clamp electrophysiology); settings: for IC50: read-out: hERG IC50, manual patch clamp, 5-concentration dose-response; for hERG % inhibition at 3 µM: manual or (less accurate) QPatch assay
hERG potassium channel, sequence (Q12809 whole entry): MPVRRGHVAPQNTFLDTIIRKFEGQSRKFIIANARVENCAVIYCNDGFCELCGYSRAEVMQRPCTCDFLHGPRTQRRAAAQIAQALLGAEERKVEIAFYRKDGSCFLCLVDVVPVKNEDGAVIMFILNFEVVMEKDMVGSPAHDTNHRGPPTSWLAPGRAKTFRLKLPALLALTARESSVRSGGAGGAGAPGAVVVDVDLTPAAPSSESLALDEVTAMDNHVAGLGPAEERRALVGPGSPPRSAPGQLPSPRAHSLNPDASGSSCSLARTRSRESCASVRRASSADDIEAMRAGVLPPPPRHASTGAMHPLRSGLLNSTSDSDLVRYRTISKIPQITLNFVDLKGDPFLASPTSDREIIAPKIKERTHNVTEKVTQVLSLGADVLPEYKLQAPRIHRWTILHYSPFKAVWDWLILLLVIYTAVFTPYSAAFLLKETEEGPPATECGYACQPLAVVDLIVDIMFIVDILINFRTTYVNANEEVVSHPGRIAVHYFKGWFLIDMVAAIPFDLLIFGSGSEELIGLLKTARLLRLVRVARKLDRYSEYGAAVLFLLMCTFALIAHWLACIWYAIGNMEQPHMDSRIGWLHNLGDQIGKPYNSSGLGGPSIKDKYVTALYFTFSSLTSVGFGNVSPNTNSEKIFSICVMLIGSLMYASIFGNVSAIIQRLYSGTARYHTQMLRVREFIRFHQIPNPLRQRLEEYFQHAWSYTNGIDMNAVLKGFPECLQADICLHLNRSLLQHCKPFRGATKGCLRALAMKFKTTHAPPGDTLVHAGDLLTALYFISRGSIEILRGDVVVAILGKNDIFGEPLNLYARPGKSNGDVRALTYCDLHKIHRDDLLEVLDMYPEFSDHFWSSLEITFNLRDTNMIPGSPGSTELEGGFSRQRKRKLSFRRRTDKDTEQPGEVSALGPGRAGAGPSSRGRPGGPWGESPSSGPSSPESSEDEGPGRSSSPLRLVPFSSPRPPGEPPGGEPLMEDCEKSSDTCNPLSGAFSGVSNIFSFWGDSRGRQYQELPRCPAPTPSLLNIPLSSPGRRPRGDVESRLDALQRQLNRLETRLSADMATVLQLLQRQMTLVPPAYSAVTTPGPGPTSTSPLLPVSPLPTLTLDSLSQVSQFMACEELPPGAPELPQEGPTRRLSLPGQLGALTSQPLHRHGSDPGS

[10] = in vivo; settings: mouse, iv
[11] = Mouse pharmacokinetics
[12] = Clearance by human liver microsomes
[13] = Clearance by mouse liver microsomes
[14] = Mycobacterium tuberculosis, inhaled or nasal, 288 h; read-out: Log reduction in colony-forming units (CFU), new compound

| Compound | MIC90 [1] [µg/mL] | MIC90 [2] [µg/mL] | log reduction at 20 mg/kg [5, 14] | AUC: exposure, AUCinf [6] [µg·h/mL] | IV Cl: IV clearance [6] [mL/min/kg] | Vz: IV apparent volume of distribution during terminal phase [6] [L/kg] | F: oral bioavailability [6] [%] | microsomal CLint [7] [µL/min/mg] | microsomal CLint [8] [µL/min/mg] | IC50 [9] [nM] | clearance [10] [mL/min/kg] | other results |
| --- | --- | --- | --- | --- | --- | --- | --- | --- | --- | --- | --- | --- |
| COc1nc2ccc(Br)cc2cc1[C@@H](c1ccccc1)[C@@](O)(CCN(C)C)c1cccc2ccccc12 [Compound 1, Bedaquiline, reference compound] | 0.08 (≈ 0.144 µM) | 0.12 (≈ 0.216 µM) |  |  |  |  |  |  |  |  |  | IC50 [3]: 4 to 16 µg/mL (≈ 7.2 to 28.8 µM) |
| COc1cccc(C(O)(CCN(C)C)C(c2cc3cc(Br)ccc3nc2OC)c2cccc3c2OCO3)n1 (centres unmarked) [Compound 15] | 0.54 (≈ 0.93 µM) | 0.58 (≈ 0.999 µM) | 0.3 | 5.60 | 13 | 10 | 45 | 8 | 25 | 240 |  | IC50 [4]: 7.6 µM |
| COc1nc2ccc(Br)cc2cc1C(c1cccc(C)c1)C(O)(CCN(C)C)c1cccnc1C (centres unmarked) [Compound 19] | 0.15 (≈ 0.281 µM) | 0.25 (≈ 0.468 µM) |  | 0.40 | 59 | 33 | 10 | 35 | 71 |  | > 50 | hERG % inhibition at 3 µM [9]: 26%/3 |
| COc1cccc(C(c2cc3cc(Br)ccc3nc2OC)C(O)(CCN(C)C)c2ccc(C)nc2)c1F (centres unmarked) [Compound 22] | 0.3 (≈ 0.528 µM) | 0.28 (≈ 0.493 µM) |  | 0.25 | 67 | 10 | 8 | 24 | 99 |  | > 50 | hERG % inhibition at 3 µM [9]: 17%/3 |
| COc1cccc(C(c2cc3cc(Br)ccc3nc2OC)C(O)(CCN(C)C)c2cc(C)cnc2C)c1OC (centres unmarked) [Compound 33] | 0.07 (≈ 0.118 µM) | 0.11 (≈ 0.185 µM) | 3.5 | 1.39 | 79 | 77 | 72 | 7 | 17 | 1100 | > 50 |  |
| COc1cccc(C(c2cc3cc(Br)ccc3nc2OC)C(O)(CCN(C)C)c2cnc(C)cc2C)c1OC (centres unmarked) [Compound 38] | 0.02 (≈ 0.0336 µM) | 0.24 (≈ 0.404 µM) | 0.7 | 2.08 | 28 | 23 | 34 | 13 | 46 | 3900 |  |  |
| COc1nc2ccc(Br)cc2cc1C(c1cccc(C)c1)C(O)(CCN(C)C)c1cccnc1OC (centres unmarked) [Compound 39] | 0.13 (≈ 0.236 µM) | 0.14 (≈ 0.254 µM) | 0.6 | 2.51 |  |  |  | 10 | 20 | 450 |  |  |
| COc1nc2ccc(C#N)cc2cc1C(c1cccc(C)c1)C(O)(CCN(C)C)c1cccnc1OC (centres unmarked) [Compound 40] | 0.52 (≈ 1.05 µM) | 0.76 (≈ 1.53 µM) | 0.5 | 1.17 | 48 | 6.6 | 33 | 11 | 53 | 300 |  |  |
| COc1nc2ccc(Br)cc2cc1C(c1cccc2c1OCO2)C(O)(CCN(C)C)c1cccnc1OC (centres unmarked) [Compound 41] | 0.66 (≈ 1.14 µM) | 1.1 (≈ 1.89 µM) | 0.3 | 3.78 | 27 | 20 | 46 | 36 | 19 |  |  | hERG % inhibition at 3 µM [9]: 26%/3 |
| COc1cc(C(O)(CCN(C)C)C(c2cc3cc(Br)ccc3nc2OC)c2ccnc(OC)c2OC)cnc1OC (centres unmarked) [Compound 48] | 0.06 (≈ 0.0956 µM) | 0.45 (≈ 0.717 µM) | 0.9 | 4.28 | 19 | 6.0 | 48 | 5 | 59 | 3600 |  |  |
| COc1cccc(C(c2cc3cc(C#N)ccc3nc2OC)C(O)(CCN(C)C)c2cc(C)nc(C)c2)c1F (centres unmarked) [Compound 55] | 0.6 (≈ 1.14 µM) | 0.91 (≈ 1.72 µM) |  | 0.35 | 130 | 53 | 25 | 12 | 51 |  | > 50 | hERG % inhibition at 3 µM [9]: 37%/3 |
| COc1cccc(C(c2cc3cc(C#N)ccc3nc2OC)C(O)(CCN(C)C)c2cc(C)nc(C)c2)c1OC (centres unmarked) [Compound 57] | 0.24 (≈ 0.444 µM) | 0.61 (≈ 1.13 µM) | 1.9 | 1.48 | 71 | 82 | 54 | 7 | 7 | 5200 | > 50 |  |
| CCOc1cc(C(O)(CCN(C)C)C(c2cc3cc(Br)ccc3nc2OC)c2ccnc(OC)c2OC)cc(OC(C)C)n1 (centres unmarked) [Compound 61] | 0.01 (≈ 0.0149 µM) | 0.06 (≈ 0.0896 µM) |  |  |  |  |  |  |  |  |  | log reduction at 20 mg/kg ([5]; Mycobacterium tuberculosis, inhaled or nasal, 288 h, read-out: Log reduction in colony-forming units (CFU), new compound): 5; F: oral bioavailability ([11]; mice): 50%; AUC: exposure, AUCinf ([11]; mouse): 10.9 µg·h/mL; IV Cl: IV clearance ([11]; mouse, IV): 7 mL/min/kg; Vz: IV apparent volume of distribution during terminal phase ([11]; mouse, IV): 44 L/kg; microsomal CLint [12]: 8 µL/min/mg; microsomal CLint [13]: 7 µL/min/mg |
| CCOc1cc(C(O)(CCN(C)C)C(c2cc(OC)nc(OC)c2)c2cc3cc(Br)ccc3nc2OC)cc(OC(C)C)n1 (centres unmarked) [Compound 62] | < 0.02 |  | 4.5 | 33.0 | 3 | 20 | 58 | 1 | 2.3 | > 10000 |  |  |
